# Assay: Udenafil solubility test at different pHs
# Format: physicochemical
# Conditions: thermodynamic from solid; in purified water (Comparative Example 1)
# Procedure: A pH adjusting agent was added to 5 ml of purified water, and the mixture was stirred for 10 minutes, and then udenafil was added thereto, thus preparing the solutions shown in Table 1 above.
# Detector: UV detector (292 nm)
# Column temperature: 30° C.
# Mobile phase: 2.72 g of KH2PO4 dissolved in 1 L of purified water (A); acetonitrile (B); A:B=700:300
smiles,measurement,value
"CCCOc1ccc(S(=O)(=O)NCCC2CCCN2C)cc1-c1nc2c(CCC)nn(C)c2c(=O)[nH]1 (stereo not shown) [Udenafil, 5-[2-propyloxy-5-(1-methyl-2-pyrrolidinyleneamidosulfonyl)phenyl]-1-methyl-1-propyl-1,6-dihydro-7H-pyrazolo(4,3-d)pyrimidin-7-one]",solubility at 2 h,~120 µg/mL

# Source: US20220249493A1, “PHARMACEUTICAL COMPOSITION COMPRISING UDENAFIL” (COREPHARM BIO CO., LTD., priority 2019, published 2022)
